Entries after “also recorded” stand apart in the source; their conditions may differ.
Legend:
[1] = tested on: ETA receptors; experiment: Inhibition of ET-1 induced vasoconstriction in the gerbil spiral modiolar artery; settings: agonist 1 nM ET-1; antagonist 0.1-1 μM; competitive inhibition assumed
[2] = biological target: ETA receptor; settings: read-out: Ki, ET-1 induced contraction of rat aortic strips; ref [6]-[9]; cited from earlier work
[3] = tested on: ETA receptor; settings: rat cardiac membranes; ref [6]-[9]; cited from earlier work
[4] = tested on: voltage-gated K^+ currents; experiment: Patch clamp recording of voltage-gated K+ currents in mouse DRG neurons; type: cell-based
[5] = tested on: voltage-gated Na^+ currents (TTX-sensitive); experiment: Patch clamp recording of voltage-gated Na+ currents in mouse DRG neurons; type: cell-based
[6] = tested on: voltage-gated Ca^2+ currents (LVA, principally Cav3.2 T-type; HVA, mainly L-type); experiment: Patch clamp recording of voltage-gated Ca2+ currents in mouse DRG neurons; type: cell-based
[7] = tested on: ETA receptors; settings: ref [25], cited from earlier work

## CC1(C)C(=O)CC[C@]2(C)[C@H]3CC[C@@H]4CCC(=O)C=C4[C@]3(C)CC[C@@H]12 [(+)-1, (+)-(4aR,10bR)-1,1,4a,10b-Tetramethyl-4,4a,4b,5,6,6a,7,8,10b,11,12,12a-dodecahydro-chrysene-2,9(1H,3H)-dione]
[1]
  A2 (putative affinity value): 193 nM

## CC1(C)C(=O)CC[C@]2(C)[C@H]3CC[C@@H]4CCC(=O)C[C@@]4(C#N)[C@]3(C)CC[C@@H]12 [(+)-2, (+)-(4aS,4bR,6aR,10aR,10bR,12aR)-4b,7,7,10a-Tetramethyl-3,8-dioxo-octadecahydrochrysene-4a-carbonitrile]
[1]
  A2 (putative affinity value): 134 nM

## CC1(C)CC[C@]2(C(=O)O)CC[C@]3(COC(=O)/C=C/c4ccc(O)c(O)c4)C(=CC[C@@H]4[C@@]5(C)CCC(=O)C(C)(C)[C@@H]5CC[C@]43C)[C@@H]2C1 [(+)-myriceric acid A, myriceric acid A]
[1]
  A2 (putative affinity value): 85 nM
[2]
  Ki: 66 ± 15 nM
[3]
  Effect on specific binding of [125I]endothelin-1: antagonizes specific binding

## CC1(C)[C@@H]2CC[C@]3(C)[C@H](CC[C@@H]4CC=C(O[Si](C)(C)C(C)(C)C)C[C@]43C=N)[C@@]2(C)CCC12OCCO2 [(-)-3, (-)-{(4aR,4bR,6aR,10a S,10bR,12aR)-9-(tert-Butyldimethylsilyloxy)-1,1,4a,10b-tetramethyl-3,4,4a,4b,5,6,6a,7,10,10a,10b,11,12,12a-tetradecahydro-1H-spiro[chrysene-2,2′-[1,3]dioxolane]-10a-yl}methanimin]
[4]; 3 μM
  Inhibition of K+ currents: non-specific inhibition
[4]; 0.1 - 0.3 μM, depolarizing to 70 mV for 300 ms
  Inhibition of K+ currents: little inhibition; also recorded: little inhibitory effect
[1]
  A2 (putative affinity value): 93 nM
[5]; 0.3 μM (as stated in conclusions)
  Inhibition of Na+ currents: little inhibitions
[5]; 3 μM
  Inhibition of Na+ currents: non-specific inhibition
[5]; 0.1 - 0.3 μM, depolarizing to 0 mV for 20 ms
  Inhibition of Na+ currents: little inhibition; also recorded: little inhibitory effect
[6]; 3 μM
  Inhibition of Ca2+ currents: completely block; also recorded: non-specific inhibition
[6]; 0.1 and 0.3 μM, step to -10 mV from Vh -90 mV
  Inhibition of Ca2+ currents: substantially inhibited
[6]; bath application 0.1 - 3 μM
  Inhibition of LVA- and HVA-Ca2+ currents: concentration-dependent inhibition; also recorded: concentration-dependent blockage

## CC1(C)[C@@H]2CC[C@]3(C)[C@H](CC[C@@H]4CC[C@@]5(O)C[C@]43C=N5)[C@@]2(C)CCC12OCCO2 [(-)-4, (-)-Spiro-(10a, 9)-{(4aR,4bR,6aR,10aS,10bR,12aR)-1,1,4a,10b-tetramethyl-3,4,4a,4b,5,6,6a,7,10,10a,10b,11,12,12a-tetradecahydro-1H-spiro[chrysene-2,2′-[1,3]dioxolane]-10a-yl}methyl-hemiaminal]
[1]
  A2 (putative affinity value): 301 nM

## CC1(C)C(=O)CC[C@]2(C)[C@H]3CCc4ccc(O)cc4[C@]3(C)CC[C@@H]12 [(-)-5, (-)-(4aR,4bR,10bR)-9-Hydroxy-1,1,4a,10b-tetramethyl-3,4,4a,4b,5,6,10b,11,12,12a-decahydrochrysen-2(1H)-one]
[1]
  A2 (putative affinity value): 205 nM

## CC1(C)C(=O)CC[C@]2(C)[C@H]3CCc4ccc(OCCO)cc4[C@]3(C)CC[C@@H]12 [(-)-6, (-)-(4aR,10bR)-9-(2-Hydroxyethoxy)-1,1,4a,10b-tetramethyl-4,4a,5,6,10b,11,12,12a-octahydro-(1 H,3H,4bH)-chrysen-2-one]
[1]
  A2 (putative affinity value): 318 nM

## Endothelin-1 [ET-1]
[7]; normalized to 10 mM Ca2+ vasoconstriction
  Emax, normalized maximal vasoconstriction: 140%
[7]; read-out: EC50 of vasoconstriction, gerbil spiral modiolar artery
  EC50: 0.74 nM

Source: publication PMC4555001 (Bioorganic & medicinal chemistry, 2015)
